Earlier results, collected in article PMC7992120 (Nature chemical biology, 2018).

Experiments:
[1] = system: human bradykinin 1 receptor (B1R); conditions: for affinity for B1R of peptides lacking N-terminal lysine (in words): no reference at the sentence (Fig. 1)
[2] = system: human bradykinin 2 receptor (B2R); conditions: for affinity for B2R (in words): agonist
[3] = system: B2R, "these residues" replaced by alanine or positively charged amino acids; conditions: replacement by alanine or positively charged amino acids
dog B1R = conditions: D^7.29 replaced by Asn

| Substance | affinity for B2R, Figure 1 legend (in words) [2] | affinity for B2R (in words) [2] | affinity for B1R of peptides lacking N-terminal lysine (in words) ([1]; human B1R) | other results |
| --- | --- | --- | --- | --- |
| KRPPGFSPL [DALK] |  |  |  | B1R antagonism / affinity (in words) ([1]; B1R antagonist): high-affinity antagonist for B1R |
| bradykinin (RPPGFSPFR; Bradykinin; UniProt P01042 381-389, looked up) [BK] | high-affinity ligands for B2R | high-affinity agonists | rather low affinity to the B1R | BK binding of mutant (in words) [3]: substantially impairs BK binding in B2R |
| desArg^9-bradykinin [DABK] |  |  | rather low affinity to the B1R | affinity for B2R of desArg peptides (in words) [2]: only weak binding affinity to the B2R; selectivity between DAKD and DABK (in words) (dog B1R): no significant selectivity between DAKD and DABK; affinity for B1R, Figure 1 legend (in words) ([1]; human B1R): not DABK, binds with high affinity to B1R |
| kallidin [KD] | high-affinity ligands for B2R | high-affinity agonists |  |  |
